From PubChem BioAssay AID1324 (NMMLSC, 2008)
Active and inactive are the calls of the source. The rule behind the calls is not given here.

The molecules below were run against glutathione S-transferase (GST-GSH binding) (assay: GST–glutathione interaction disruption – biochemical, multiplex beads, flow cytometry, HPSMTB buffer, profiling panel (AID 1324;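 note: glutathione beads loaded with GST-green fluorescent protein and no fluorescent Bim peptide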)). Details: multiplex bead flow cytometry, MCF.
With CCOCCCNc1nc(=S)[nH]c2cc(OC)c(OC)cc12 the EC50 was “inactive”. With CCOC(=O)c1c2c3c(c(Cl)ccc3[nH]c1=O)C(=O)c1ccccc1-2 the EC50 was 5.4 µM. Work on CN(C)c1ncc(C2=C(Cl)C(=O)C(N3CCCC3)=C(Cl)C2=O)s1 yielded an EC50 of 8.83 µM. With CCCCNc1nc(=S)[nH]c2cc(OC)c(OC)cc12 the EC50 was “inactive”. With CN1CCN(C2=C(Cl)C(=O)C(c3cnc(N4CCCCC4)s3)=C(Cl)C2=O)CC1 the EC50 was 0.22 µM. O=C1c2ccccc2-c2onc3ccc(NCc4ccco4)c1c23 was tested, and the EC50 was “inactive”. In the case of COc1ccccc1Nc1nc(-c2c(C)nc3ncccn23)cs1, the EC50 is reported as “inactive”.

Same assay, conditions: multiplex bead flow cytometry, MCF, hits give high values, concentration not given here
With CCOC(=O)c1ccc(N=c2ssnc2Cl)cc1 the percent span inhibition was “inactive”. Clc1nc2ccccc2cc1/C=N/Nc1nc2ccccc2[nH]1 was tested, and the percent span inhibition was “inactive”. For CC1(C(=O)N(CC(=O)NC2CCCC2)Cc2ccco2)CC(=O)N=C2C=CC=CN21 (stereo unspecified), the percent span inhibition was “inactive”. O=C(CNC(=O)c1ccc(S(=O)(=O)N2CCCC2)cc1)N/N=C/c1ccc(Cl)cc1Cl was tested, and the percent span inhibition was “inactive”. In the case of CN(C)c1ccc(C(=O)/C=C/c2ccc(Br)cc2)cc1, the percent span inhibition is reported as “inactive”. In the case of Cc1ccc(C(=O)N(CCCN(C)C)c2nc3ccc(Cl)cc3s2)cc1C, the percent span inhibition is reported as “inactive”. For Cc1ccc(-c2cc(-c3ccc(F)cc3)nc(N)c2C#N)o1, the percent span inhibition was “inactive”. For N=C1C(c2nc3ccccc3s2)=C(O)CN1Cc1ccccc1, the percent span inhibition was “inactive”. In the case of O=C1/C(=C\c2ccco2)NC(=S)N1c1ccccc1, the percent span inhibition is reported as “inactive”. For COc1cc(CNc2ccc3[nH]c(=O)[nH]c3c2)cc(Br)c1OCC(=O)NC(C)(C)C, the percent span inhibition was “inactive”. In the case of CCN1CCN(c2cc(C)c3cc(NC(=S)N4CCN(c5ccc(F)cc5)CC4)ccc3n2)CC1, the percent span inhibition is reported as “inactive”. COc1ccc(C(=O)Nc2ccc(C(=O)OCC(=O)c3cccc4ccccc34)cc2)cc1 was tested, and the percent span inhibition was “inactive”. C/C(=N\NC(=O)Cc1cccn1C)c1ccc2ccccc2c1 was tested, and the percent span inhibition was “inactive”. In the case of CCCCC(C(=O)OCC)C(N)Cc1ccc(F)cc1 (stereo unspecified), the percent span inhibition is reported as “inactive”. In the case of COC(=O)CCC(=O)Nc1sc(C)c(C)c1C(N)=O, the percent span inhibition is reported as “inactive”. In the case of Cc1cccc(-n2c(O)c(/C=N/N3CCOCC3)c(=O)[nH]c2=S)c1, the percent span inhibition is reported as “inactive”. COC(=O)c1cc(OC)c(OC)cc1NC(=O)Nc1cccc(C(C)=O)c1 was tested, and the percent span inhibition was “inactive”. In the case of Clc1nssc1=Nc1ccc(Br)cc1, the percent span inhibition is reported as “inactive”. With Cc1cccc(C(=O)N2CCC(c3nc(-c4ccc(S(=O)(=O)N5CCOCC5)cc4)no3)CC2)c1 the percent span inhibition was “inactive”. For COc1cc2c(cc1OC)C(c1ccccc1F)OC(=O)C2 (stereo unspecified), the percent span inhibition was “inactive”. For CCN1/C(=C/c2ccc3cc(C)ccc3[n+]2CC)Sc2cc(C)c(C)cc21, the percent span inhibition was “inactive”. CCOc1cc(CNc2ccc(N(C)C)cc2)cc(Br)c1OCC(=O)NC(C)(C)C was tested, and the percent span inhibition was “inactive”. In the case of CCOc1ccccc1-n1c(=O)c2ccccc2c2ccccc2c1=O, the percent span inhibition is reported as “inactive”. With Cc1ccc(S(=O)(=O)NC(=O)COc2ccccc2C)cc1 the percent span inhibition was “inactive”. In the case of CCOC(=O)c1ccc(NC(=O)CSCCC(=O)O)cc1, the percent span inhibition is reported as “inactive”. For CCOC(=O)C1=C(CP(=O)(c2ccccc2)c2ccccc2)NC(=O)NC1c1ccc(OC)cc1 (stereo unspecified), the percent span inhibition was “inactive”. c1csc(C2=Nn3c(nnc3-c3ccncc3)SC2)c1 was tested, and the percent span inhibition was “inactive”. With O=C(CSc1nnc(Cc2ccccc2)o1)NCc1ccco1 the percent span inhibition was “inactive”. With Cn1cc(CN2C[C@]3(C)C[C@H]2CC(C)(C)C3)c(-c2ccc3c(c2)OCCO3)n1 the percent span inhibition was “inactive”. With COc1ccc(-n2c(SCC(=O)Nc3ccc(C(=O)O)cc3)nnc2-c2cccs2)cc1 the percent span inhibition was “inactive”. In the case of CCOc1c(Cl)cc(CNc2ccc(N3CCCC3)cc2)cc1OC, the percent span inhibition is reported as “inactive”. O=C(C1=C(Nc2ccccc2)c2ccccc2S(=O)(=O)N1)c1ccccc1 was tested, and the percent span inhibition was “inactive”. In the case of Cc1cc2nn(-c3cccc4ccccc34)nc2cc1N, the percent span inhibition is reported as “inactive”. Cc1ccc(-c2n[nH]c(=S)n2-c2ccccc2)cc1 was tested, and the percent span inhibition was “inactive”. With Cc1cc2nc(/C(C#N)=C/c3ccncc3)[nH]c2cc1C the percent span inhibition was “inactive”. For COc1ccc(N2C(=O)C(Cl)=C(Nc3c(C)n(C)n(-c4ccccc4)c3=O)C2=O)cc1, the percent span inhibition was “inactive”. For CCOC(=O)c1nc(Nc2ccc(C(=O)OC)cc2)c2ccccc2n1, the percent span inhibition was “inactive”. With CCOC(=O)CCCNC(=O)c1cncc(O)c1 the percent span inhibition was “inactive”. With O=C1/C(=C\c2ccc(-c3ccccc3Cl)o2)SC(=S)N1CC1CCCO1 (stereo unspecified) the percent span inhibition was “inactive”. For CCOC(=O)c1nc(Nc2ccc(N3CCC(C)CC3)cc2)c2ccccc2n1, the percent span inhibition was “inactive”. For CC(C(=O)Nc1ccc([N+](=O)[O-])cc1)N1CCN(C/C=C/c2ccccc2)CC1 (stereo unspecified), the percent span inhibition was “inactive”. For CS(=O)(=O)NN1C(=O)c2ccccc2NC1c1cccs1 (stereo unspecified), the percent span inhibition was “inactive”. For CSc1nnc2ccc(-c3cccs3)nn12, the percent span inhibition was “inactive”. With CCCCc1ccc(NC(=S)NCc2ccc(OC)cc2)cc1 the percent span inhibition was “inactive”. For CC1CC2=C(NC(=S)NC2c2cccc(F)c2)/C(=C/c2cccc(F)c2)C1 (stereo unspecified), the percent span inhibition was “inactive”. In the case of O=C(COC(=O)CCCN=C1NS(=O)(=O)c2ccccc21)NC(=O)NC1CCCC1, the percent span inhibition is reported as “inactive”. In the case of CCOc1ccccc1/C=N/NC(=O)CNC(=O)COc1ccccc1, the percent span inhibition is reported as “inactive”. In the case of Nc1c(C(=O)NCc2ccco2)sc2nc3c(cc12)C(=O)CCC3, the percent span inhibition is reported as “inactive”. O=C(CSc1ccc(-c2ccccc2)nn1)NCc1ccco1 was tested, and the percent span inhibition was “inactive”. CCOC(=O)CSc1nnc(-c2cccc(Cl)c2)n1CC was tested, and the percent span inhibition was “inactive”. For COc1ccccc1OCc1ccc(C(=O)Nc2ccccc2F)cc1, the percent span inhibition was “inactive”. In the case of COc1cc(/C=N/NC(=O)CN(Cc2ccco2)S(=O)(=O)c2ccccc2)ccc1O, the percent span inhibition is reported as “inactive”. With CC1Cc2ccccc2N1C(=O)c1ccc(N2CCCC2)c([N+](=O)[O-])c1 (stereo unspecified) the percent span inhibition was “inactive”. CC(=O)OCCNc1cc(Sc2nc3ccccc3[nH]2)c2nonc2c1[N+](=O)[O-] was tested, and the percent span inhibition was “inactive”. In the case of CCOC(=O)c1cccc(Nc2ncnc3ccccc23)c1, the percent span inhibition is reported as “inactive”. For O=C(N/N=C/c1ccc(O)c(O)c1O)/C(=C/c1ccc([N+](=O)[O-])cc1)NC(=O)c1ccccc1, the percent span inhibition was “inactive”. With Cn1c(N)c(C(=O)COC(=O)c2cncc(Br)c2)c(=O)n(C)c1=O the percent span inhibition was “inactive”. In the case of COc1cccc(NC(=O)CSc2nncn2N)c1, the percent span inhibition is reported as “inactive”. Cc1nnc(Sc2cc(NCCCO)c([N+](=O)[O-])c3nonc23)s1 was tested, and the percent span inhibition was “inactive”. With Cc1ccc(-c2cc(-c3ccccc3)c(C#N)c(N)n2)o1 the percent span inhibition was “inactive”. In the case of CC(=O)c1ccc(NC(=O)c2ccc3nc(-c4ccco4)c(-c4ccco4)nc3c2)cc1, the percent span inhibition is reported as “inactive”. COc1cc(N=c2ssnc2Cl)cc(OC)c1OC was tested, and the percent span inhibition was “inactive”. With COc1ccccc1-n1c(-c2ccccc2)c[nH]c1=S the percent span inhibition was “inactive”. With CCCCC(=O)Nc1ccc(C(=O)N2CCC(C(=O)OCC)CC2)cc1 the percent span inhibition was “inactive”. CC1(C)CC(=O)C(C=NCCN2CCN(CCc3ccccc3)CC2)=C(O)C1 was tested, and the percent span inhibition was “inactive”. In the case of CCOC(=O)C1CCCN(c2ncnc3c2cnn3-c2cccc(C)c2)C1 (stereo unspecified), the percent span inhibition is reported as “inactive”. For COc1cc(NC(=O)c2ccc3c(c2)OCO3)ccc1NC(=O)c1ccco1, the percent span inhibition was “inactive”. COc1cc(N=c2ssnc2Cl)c(OC)cc1Cl was tested, and the percent span inhibition was “inactive”. With COc1cc(N=c2ssnc2Cl)cc(OC)c1 the percent span inhibition was “inactive”. Cc1cc(C)c[n+](-c2nc3ccccc3nc2C(=C=[N-])C#N)c1 was tested, and the percent span inhibition was “inactive”. For O=C(Nc1ccc(Cl)cn1)Nc1ccccc1F, the percent span inhibition was “inactive”. For Cc1ccc(-c2cc(C(=O)OCC(=O)N(C)C3CCS(=O)(=O)C3)c3ccccc3n2)o1 (stereo unspecified), the percent span inhibition was “inactive”. With COc1ccc(C2(NC(C)=O)CCN(C(=O)c3ccco3)CC2)cc1 the percent span inhibition was “inactive”. In the case of COc1c(C)cc(Br)cc1C(=O)Nc1ccc(S(N)(=O)=O)cc1, the percent span inhibition is reported as “inactive”. For CCOC(=O)c1sc(N)c(C(=O)Nc2ccccc2OC)c1C, the percent span inhibition was “inactive”. For CNC(=O)/C(C#N)=C/c1c(N(Cc2ccccc2)Cc2ccccc2)nc2c(C)cccn2c1=O, the percent span inhibition was “inactive”. With COc1cc(C2Nc3cccc4cccc(c34)N2)ccc1OC(C)=O the percent span inhibition was “inactive”. O=C(N/N=C/c1cccc([N+](=O)[O-])c1)c1cccs1 was tested, and the percent span inhibition was “inactive”. In the case of S=c1[nH]cc(-c2ccccc2)n1-c1ccccc1, the percent span inhibition is reported as “inactive”. For O=C(NCCc1ccccc1)c1ccc2nc(-c3ccco3)c(-c3ccco3)nc2c1, the percent span inhibition was “inactive”. In the case of Cc1ccc2c(c1)c(C)c(C)n2CC(O)Cn1nc(C)c(Br)c1C (stereo unspecified), the percent span inhibition is reported as “inactive”. With C=CS(=O)c1sc(Cl)c(N2CCOCC2)c1[N+](=O)[O-] (stereo unspecified) the percent span inhibition was “inactive”. COc1ccc(C2=Nc3cccc4cccc(c34)N2)cc1 was tested, and the percent span inhibition was “inactive”. CC1(C)Cc2c(ccc3ccccc23)/C(=C/C(=O)N2CCCCC2)N1 was tested, and the percent span inhibition was “inactive”. For O=C(NCc1ccco1)C1CC2CCC1C2 (stereo unspecified), the percent span inhibition was “inactive”. S=C(Nc1ccc(N2CCOCC2)cc1)Nc1ccc2nc(-c3ccco3)c(-c3ccco3)nc2c1 was tested, and the percent span inhibition was “inactive”. COc1ccc(N2C(=O)C(Cl)=C(Nc3ccccc3O)C2=O)cc1 was tested, and the percent span inhibition was “inactive”. CCN(CC)c1ccc(-c2nn3c(-c4cccnc4)nnc3s2)cc1 was tested, and the percent span inhibition was “inactive”. With C/C(=N/NC(=O)c1cc(O)c(O)c(O)c1)c1ccc([N+](=O)[O-])cc1 the percent span inhibition was “inactive”. For Cc1cc(NC(=O)CSc2nnc(-c3cccnc3)n2Cc2ccccc2)no1, the percent span inhibition was “inactive”. Cc1ccc(/C=C/C(=O)c2ccccc(=O)c2O)c(C)c1 was tested, and the percent span inhibition was “inactive”. With Oc1ccc(C=NCC2COc3ccccc3O2)cc1 (stereo unspecified) the percent span inhibition was “inactive”. With CC(C)Cc1cc(-c2ccco2)c(C#N)c(N)n1 the percent span inhibition was “inactive”. With Cc1ccc(Nc2nc(C)cs2)cc1 the percent span inhibition was “inactive”.
